We go through 3 molecules from ChEMBL document CHEMBL1128726, “N-substituted oxazolo[5,4-b]pyridin-2(1H)-ones: a new class of non-opiate antinociceptive agents” (J Med Chem, 1995).

Experiment [1] is filed under the species Rattus norvegicus. The experiment is described as follows: animal or person. The conditions noted are these: po, read-out: Inhibition.
Description: Antiinflammatory activity was evaluated by carrageenan induced rat paw edema (6 rats/ dose) at peroral dose of 10 mg/kg by inhibition of Prostaglandin E2 (PGE2).
The subject of experiment [2] is Rattus norvegicus. The experiment is described as follows: Antiinflammatory activity was evaluated by carrageenan induced rat paw edema (6 rats/ dose) at peroral dose of 10 mg/kg by inhibition of leukotriene B4 (LTB4) synthesis. Format: functional. The conditions noted are these: route oral. (The carrageenan paw model is a standard test of acute inflammation.)
The test system of experiment [3] is Rattus norvegicus. Kind of experiment: Antiinflammatory activity was evaluated by carrageenan induced rat paw edema volume was determined. Format: functional.
For experiment [4], the system named is Mus musculus. The experiment is described as follows: Analgesic activity was evaluated in mice (10 mice/dose)by tail clip assay and expressed as number of protected animals upon total. Total tested was determined at 5 mg/kg p.o. dose; 5/10. Format: functional, organism-based. Also noted: dose 5 mg/kg.
For experiment [5], the system named is Mus musculus. Kind of experiment: Analgesic activity was evaluated in mice by hot plate assay and percent change in foot licking latency was determined at 16 mg/kg i.p. dose. Format: functional. The conditions noted are these: route intraperitoneal. Background: Hot-plate and tail-flick tests time the reaction to a heat stimulus.
The test system of experiment [6] is Rattus norvegicus. Kind of experiment: % inhibition of acetic acid-induced writhing in rat at 30 mg/kg peroral dose, 15 min postdose(5 rats per compound at each time). The conditions noted are these: 0.25 h, route oral. The format is functional. (In general: In writhing tests, fewer writhes than in controls are read as antinociception.)
Experiment [7] is filed under the species Rattus norvegicus. Kind of experiment: Antinociceptive potency against acetic acid -induced writhing in rat (8 rats/dose). The format is functional.
Experiment [8] is filed under the species Mus musculus. Kind of experiment: Antinociceptive potency against phenylquinone (PBQ)-induced writhing in mice (8 mice/dose). Format: functional.
Experiment [9] deals with Rattus norvegicus. The experiment is described as follows: % inhibition of acetic acid-induced writhing in rat at 30 mg/kg peroral dose, 180 min postdose(5 rats per compound at each time). Format: functional. Particulars: 3 h, route oral.
In experiment [10] the test system is Rattus norvegicus. Kind of experiment: % inhibition of acetic acid-induced writhing in rat at 30 mg/kg peroral dose, 120 min postdose(5 rats per compound at each time). Format: functional. Particulars: 2 h, route oral.
The subject of experiment [11] is Rattus norvegicus. Kind of experiment: % inhibition of acetic acid-induced writhing in rat at 30 mg/kg peroral dose, 30 min postdose(5 rats per compound at each time). The format is functional. The conditions noted are these: 0.5 h, route oral.
Experiment [12] deals with Rattus norvegicus. Kind of experiment: % inhibition of acetic acid-induced writhing in rat at 30 mg/kg peroral dose, 60 min postdose(5 rats per compound at each time). Particulars: 1 h, route oral. The format is functional.
Experiment [13] relates to Rattus norvegicus. Kind of experiment: % inhibition of acetic acid-induced writhing in rat at 30 mg/kg peroral dose, 360 min postdose(5 rats per compound at each time). Format: functional. Particulars: 6 h, route oral.

Molecules are shown by their SMILES. Activity calls are given as the source filed them.

Broadly, the ED50 is the midpoint of the dose-response relation. A higher ED50 goes with a need for a large dose.

Regarding `COc1ccc2c(c1)c(CC(=O)O)c(C)n2C(=O)c1ccc(Cl)cc1` [INDOMETHACIN], the inhibition in vivo at 10 mg/kg in the experiment listed under Rattus norvegicus [1] was 100%; with Rattus norvegicus [2] it was 18%. For the same molecule, in the experiment with Rattus norvegicus [3], the Change in volume is reported as -57%.
Regarding `CN1CC[C@]23c4c5ccc(O)c4O[C@H]2[C@@H](O)C=C[C@H]3[C@H]1C5.CN1CC[C@]23c4c5ccc(O)c4O[C@H]2[C@@H](O)C=C[C@H]3[C@H]1C5.O=S(=O)(O)O`, in the experiment on Mus musculus [4], the “No. of protected animals/total” value was “Partially active”. Also, in the experiment with Mus musculus [5], the “Change in foot-licking latency” value stood at 283%.
As to `CC(=O)Oc1ccccc1C(=O)O` [ASPIRIN], the inhibition in vivo at 30 mg/kg in the experiment with Rattus norvegicus [6] stood at 53%; in the experiment on Rattus norvegicus [9], 18%; with Rattus norvegicus [10], 26%; in the experiment on Rattus norvegicus [11], 37%; with Rattus norvegicus [12], 60%; with Rattus norvegicus [13], 0%. Besides, the ED50 in the experiment listed under Rattus norvegicus [7] came out at 32 mg/kg; in the experiment listed under Mus musculus [8], 63 mg/kg.
